What was measured:
Type in all cases: biochemical
[1] = biological target: T1, N-terminal GST-tagged recombinant human Flt3, residues 564-end (Homo sapiens, UniProt P36888); assay: Flt3 kinase inhibition assay (33P-ATP filter assay); settings: 40 minutes at room temperature
T1 construct: recombinant human Flt3, residues 564-end; GST (N); purchased Upstate USA Inc, 706 Forest Street, Charlottesville, Va
T1 sequence (P36888 564-993 limits assumed): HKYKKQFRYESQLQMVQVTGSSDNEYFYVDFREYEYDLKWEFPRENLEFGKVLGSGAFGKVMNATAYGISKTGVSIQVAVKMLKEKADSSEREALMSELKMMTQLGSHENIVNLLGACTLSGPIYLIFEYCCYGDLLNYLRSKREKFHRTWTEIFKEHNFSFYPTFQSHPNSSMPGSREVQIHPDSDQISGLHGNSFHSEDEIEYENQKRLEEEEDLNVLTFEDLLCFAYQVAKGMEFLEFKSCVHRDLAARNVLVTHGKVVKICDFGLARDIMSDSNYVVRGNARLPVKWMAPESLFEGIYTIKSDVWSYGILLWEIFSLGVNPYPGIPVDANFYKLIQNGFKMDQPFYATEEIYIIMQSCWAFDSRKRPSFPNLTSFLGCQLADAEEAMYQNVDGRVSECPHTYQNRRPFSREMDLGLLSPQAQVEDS
How it was run: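 Serial compound dilutions incubated 40 min at room temperature with 5-10 mU Flt3 kinase, 50 μM peptide substrate and [γ-33P]ATP/10 mM magnesium acetate, pH 7.0. Phosphoric acid stop, filter capture and scintillation counting; activity compared with uninhibited reactions.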

[2] = biological target: T2, N-terminal His6-tagged recombinant human KDR, residues 790-end (Homo sapiens, UniProt P35968); assay: KDR kinase inhibition assay (33P-ATP filter assay)
T2 construct: recombinant human KDR, residues 790-end; His6 (N); purchased Upstate USA Inc, 706 Forest Street, Charlottesville, Va
T2 sequence (P35968 790-1356 limits assumed): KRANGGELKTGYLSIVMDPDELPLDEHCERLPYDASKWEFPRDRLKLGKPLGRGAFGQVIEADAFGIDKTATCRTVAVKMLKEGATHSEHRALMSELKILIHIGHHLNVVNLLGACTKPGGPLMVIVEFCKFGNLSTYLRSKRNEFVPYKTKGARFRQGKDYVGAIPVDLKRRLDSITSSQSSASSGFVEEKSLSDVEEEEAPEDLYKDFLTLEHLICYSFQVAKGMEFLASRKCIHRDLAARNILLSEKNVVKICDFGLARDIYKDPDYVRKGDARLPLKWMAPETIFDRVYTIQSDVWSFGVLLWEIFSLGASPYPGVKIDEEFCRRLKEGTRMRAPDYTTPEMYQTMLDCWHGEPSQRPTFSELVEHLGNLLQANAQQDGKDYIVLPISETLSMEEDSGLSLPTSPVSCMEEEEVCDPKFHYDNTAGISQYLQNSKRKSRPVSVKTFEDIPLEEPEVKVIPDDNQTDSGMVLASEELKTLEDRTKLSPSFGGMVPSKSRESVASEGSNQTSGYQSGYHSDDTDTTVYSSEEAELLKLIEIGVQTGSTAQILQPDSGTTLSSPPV
How it was run: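 His6-tagged human KDR (residues 790-end, 5-10 mU) with 0.33 mg/mL myelin basic protein in 8 mM MOPS pH 7.0, 0.2 mM EDTA, 10 mM magnesium acetate and [γ-33P]ATP; 40 min at room temperature. Stopped with phosphoric acid, filter-bound 33P counted; inhibition relative to no-inhibitor controls.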

[3] = biological target: T3, N-terminal His-tagged human Src (Homo sapiens, UniProt P12931); assay: Src kinase inhibition assay (33P-ATP filter assay)
T3 construct: His (N); purchased Upstate USA Inc, 706 Forest Street, Charlottesville, Va
T3 sequence (P12931 whole entry): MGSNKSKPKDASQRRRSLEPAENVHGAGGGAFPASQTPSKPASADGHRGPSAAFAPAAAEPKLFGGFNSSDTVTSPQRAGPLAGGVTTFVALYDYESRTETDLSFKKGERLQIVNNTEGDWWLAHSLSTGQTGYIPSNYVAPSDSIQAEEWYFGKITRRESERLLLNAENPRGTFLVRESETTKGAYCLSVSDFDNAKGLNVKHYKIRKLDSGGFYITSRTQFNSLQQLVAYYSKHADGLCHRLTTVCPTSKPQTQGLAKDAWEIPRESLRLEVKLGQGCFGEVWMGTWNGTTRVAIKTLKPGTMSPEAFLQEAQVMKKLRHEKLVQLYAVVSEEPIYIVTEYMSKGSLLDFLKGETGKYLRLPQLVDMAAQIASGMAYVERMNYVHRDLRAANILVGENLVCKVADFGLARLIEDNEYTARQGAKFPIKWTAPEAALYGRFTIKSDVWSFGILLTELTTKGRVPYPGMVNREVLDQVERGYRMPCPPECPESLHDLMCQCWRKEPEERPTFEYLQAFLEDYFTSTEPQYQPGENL

[4] = group with IC50 greater than 100 nM

SMILES: Cc1cc(Nc2cc(N3CCN(C)CC3)nc(-c3ccc(F)c(F)c3)n2)n[nH]1 [Example 168, 2-(3,4-difluorophenyl)-N-(5-methyl-1H-pyrazol-3-yl)-6-(4-methylpiperazin-1-yl)pyrimidin-4-amine]
- IC50 [1]: ≤ 100 nM
- IC50 [2, 4]: ≤ 1000 nM
- IC50 ([3]; 40 minutes at room temperature): ≤ 100 nM

SMILES: Cc1cc(Nc2cc(N3CCN(C)CC3)nc(-c3cc4cc(NS(=O)(=O)C5CC5)ccc4o3)n2)n[nH]1 [Example 155, N-(2-(4-(5-methyl-1H-pyrazol-3-ylamino)-6-(4-methylpiperazin-1-yl)pyrimidin-2-yl)benzofuran-5-yl)cyclopropanesulfonamide]
- IC50 [1]: ≤ 100 nM
- IC50 ([2]; 40 minutes at room temperature): ≤ 100 nM
- IC50 ([3]; 40 minutes at room temperature): ≤ 100 nM

SMILES: Cc1cc(Nc2cc(N3CCN(C)CC3)nc(-c3ccc(F)cc3)n2)n[nH]1 [Compound 32, 2-(4-fluorophenyl)-N-(5-methyl-1H-pyrazol-3-yl)-6-(4-methylpiperazin-1-yl)pyrimidin-4-amine]
- IC50 [1]: ≤ 100 nM
- IC50 [2, 4]: ≤ 1000 nM
- IC50 ([3]; 40 minutes at room temperature): ≤ 100 nM

SMILES: Cc1cc(Nc2cc(NC3CCOCC3)nc(-c3cc(F)ccc3F)n2)n[nH]1 [Example 185, 2-(2,5-difluorophenyl)-N^4-(5-methyl-1H-pyrazol-3-yl)-N^6-(tetrahydro-2H-pyran-4-yl)pyrimidine-4,6-diamine]
- IC50 [1]: ≤ 100 nM
- IC50 ([2]; 40 minutes at room temperature): ≤ 100 nM
- IC50 [3, 4]: ≤ 1000 nM

SMILES: Cc1cc(Nc2cc(N3CCN(C)CC3)nc(-c3cccc(-c4ccccc4)c3)n2)n[nH]1 [Compound 16, 2-(biphenyl-3-yl)-N-(5-methyl-1H-pyrazol-3-yl)-6-(4-methylpiperazin-1-yl)pyrimidin-4-amine]
- IC50 [1]: ≤ 100 nM
- IC50 ([2]; 40 minutes at room temperature): ≤ 100 nM
- IC50 ([3]; 40 minutes at room temperature): ≤ 100 nM

SMILES: COCCN(C)c1cc(Nc2cc(C)[nH]n2)nc(-c2cccc(Cl)c2)n1 [Compound 62, 2-(3-chlorophenyl)-N^4-(2-methoxyethyl)-N^4-methyl-N^6-(5-methyl-1H-pyrazol-3-yl)pyrimidine-4,6-diamine]
- IC50 [1]: ≤ 100 nM
- IC50 [2, 4]: ≤ 1000 nM
- IC50 [3, 4]: ≤ 1000 nM

SMILES: COCCN(C)c1cc(Nc2cc(C)[nH]n2)nc(-c2cccc(N(C)C)c2)n1 [Compound 119, 2-(3-(dimethylamino)phenyl)-N^4-(2-methoxyethyl)-N^4-methyl-N^6-(5-methyl-1H-pyrazol-3-yl)pyrimidine-4,6-diamine]
- IC50 [1]: ≤ 100 nM
- IC50 [2, 4]: ≤ 1000 nM
- IC50 ([3]; 40 minutes at room temperature): ≤ 100 nM

SMILES: Cc1cc(Nc2cc(N3CCN(C)CC3)nc(-c3cccc(C#N)c3)n2)n[nH]1 [Example 163, 3-(4-(5-methyl-1H-pyrazol-3-ylamino)-6-(4-methylpiperazin-1-yl)pyrimidin-2-yl)benzonitrile]
- IC50 [1]: ≤ 100 nM
- IC50 ([2]; 40 minutes at room temperature): ≤ 100 nM
- IC50 ([3]; 40 minutes at room temperature): ≤ 100 nM

SMILES: CC(=O)N1CCN(c2cc(Nc3cc(C)[nH]n3)nc(-c3cc4ccccc4n3C)n2)CC1 [Compound 6, 1-(4-(6-(5-methyl-1H-pyrazol-3-ylamino)-2-(1-methyl-1H-indol-2-yl)pyrimidin-4-yl)-piperazin-1-yl)ethanone]
- IC50 [1]: ≤ 100 nM
- IC50 ([2]; 40 minutes at room temperature): ≤ 100 nM
- IC50 ([3]; 40 minutes at room temperature): ≤ 100 nM

SMILES: Cc1cc(Nc2cc(N3CCN(C)CC3)nc(-c3cc(F)cc(F)c3)n2)n[nH]1 [Example 170, 2-(3,5-difluorophenyl)-N-(5-methyl-1H-pyrazol-3-yl)-6-(4-methylpiperazin-1-yl)pyrimidin-4-amine]
- IC50 [1]: ≤ 100 nM
- IC50 ([3]; 40 minutes at room temperature): ≤ 100 nM

SMILES: Cc1cc(Nc2cc(N3CCN(C)CC3)nc(-c3cccc(OCc4ccccc4)c3)n2)n[nH]1 [Example 188, 2-(3-(benzyloxy)phenyl)-N-(5-methyl-1H-pyrazol-3-yl)-6-(4-methylpiperazin-1-yl)pyrimidin-4-amine]
- IC50 [1]: ≤ 100 nM
- IC50 [2, 4]: ≤ 1000 nM
- IC50 [3, 4]: ≤ 1000 nM

SMILES: Cc1cccc(-c2nc(Nc3cc(C)[nH]n3)cc(N3CCN(C)CC3)n2)c1 [Compound 39, N-(5-methyl-1H-pyrazol-3-yl)-6-(4-methylpiperazin-1-yl)-2-m-tolylpyrimidin-4-amine]
- IC50 [1]: ≤ 100 nM
- IC50 ([2]; 40 minutes at room temperature): ≤ 100 nM
- IC50 ([3]; 40 minutes at room temperature): ≤ 100 nM

SMILES: Cc1cc(Nc2cc(NC3CCOCC3)nc(-c3ccc4c(c3)OCO4)n2)n[nH]1 [Example 132, 2-(benzo[d][1,3]dioxol-5-yl)-N^4-(5-methyl-1H-pyrazol-3-yl)-N^6-(tetrahydro-2H-pyran-4-yl)pyrimidine-4,6-diamine]
- IC50 [1]: ≤ 100 nM
- IC50 ([2]; 40 minutes at room temperature): ≤ 100 nM
- IC50 ([3]; 40 minutes at room temperature): ≤ 100 nM

SMILES: Cc1cc(Nc2cc(N3CCN(C)CC3)nc(-c3ccc4ccccc4c3)n2)n[nH]1 [Example 135, N-(5-methyl-1H-pyrazol-3-yl)-6-(4-methylpiperazin-1-yl)-2-(naphthalen-2-yl)pyrimidin-4-amine]
- IC50 [1]: ≤ 100 nM
- IC50 ([2]; 40 minutes at room temperature): ≤ 100 nM
- IC50 ([3]; 40 minutes at room temperature): ≤ 100 nM

SMILES: Cc1cc(Nc2cc(N3CCN(C)CC3)nc(-c3ccc(C(C)(C)C)cc3)n2)n[nH]1 [Compound 82, 2-(4-tert-butylphenyl)-N-(5-methyl-1H-pyrazol-3-yl)-6-(4-methylpiperazin-1-yl)pyrimidin-4-amine]
- IC50 [1]: ≤ 100 nM
- IC50 [2, 4]: ≤ 1000 nM
- IC50 ([3]; 40 minutes at room temperature): ≤ 100 nM

SMILES: Cc1cc(Nc2cc(NC3CCOCC3)nc(-c3cccc(F)c3)n2)n[nH]1 [Compound 20, 2-(3-fluorophenyl)-N^4-(5-methyl-1H-pyrazol-3-yl)-N^6-(tetrahydro-2H-pyran-4-yl)pyrimidine-4,6-diamine]
- IC50 [1]: ≤ 100 nM
- IC50 ([2]; 40 minutes at room temperature): ≤ 100 nM
- IC50 ([3]; 40 minutes at room temperature): ≤ 100 nM

SMILES: Cc1cc(Nc2cc(NC3CCOCC3)nc(-c3ccc(-c4ccccc4)cc3)n2)n[nH]1 [Example 158, 2-(biphenyl-4-yl)-N^4-(5-methyl-1H-pyrazol-3-yl)-N^6-(tetrahydro-2H-pyran-4-yl)pyrimidine-4,6-diamine]
- IC50 [1]: ≤ 100 nM
- IC50 [3, 4]: ≤ 1000 nM

SMILES: Cc1cc(Nc2cc(N3CCN(C)CC3)nc(-c3ccc([N+](=O)[O-])cc3)n2)n[nH]1 [Example 164, N-(5-methyl-1H-pyrazol-3-yl)-6-(4-methylpiperazin-1-yl)-2-(4-nitrophenyl)pyrimidin-4-amine]
- IC50 [1]: ≤ 100 nM
- IC50 ([3]; 40 minutes at room temperature): ≤ 100 nM

SMILES: COc1ccc(-c2nc(Nc3cc(C)[nH]n3)cc(N(C)CCN(C)C)n2)cc1 [Compound 54, N^4-(2-(dimethylamino)ethyl)-2-(4-methoxyphenyl)-N^4-methyl-N^6-(5-methyl-1H-pyrazol-3-yl)pyrimidine-4,6-diamine]
- IC50 [1]: ≤ 100 nM
- IC50 [2, 4]: ≤ 1000 nM
- IC50 ([3]; 40 minutes at room temperature): ≤ 100 nM

SMILES: Cc1cc(Nc2cc(N3CCN(C)CC3)nc(-c3cccc(OC(F)(F)F)c3)n2)n[nH]1 [Example 192, N-(5-methyl-1H-pyrazol-3-yl)-6-(4-methylpiperazin-1-yl)-2-(3-(trifluoromethoxy)phenyl)pyrimidin-4-amine]
- IC50 [1]: ≤ 100 nM
- IC50 [2, 4]: ≤ 1000 nM
- IC50 ([3]; 40 minutes at room temperature): ≤ 100 nM

SMILES: Cc1cc(Nc2cc(N3CCN(C)CC3)nc(-c3cccc(N(C)C)c3)n2)n[nH]1 [Compound 86, 2-(3-(dimethylamino)phenyl)-N-(5-methyl-1H-pyrazol-3-yl)-b-(4-methylpiperazin-1-yl)pyrimidin-4-amine]
- IC50 [1]: ≤ 100 nM
- IC50 ([3]; 40 minutes at room temperature): ≤ 100 nM

SMILES: COCCNc1cc(Nc2cc(C)[nH]n2)nc(-c2ccccc2)n1 [Compound 10, N^4-(2-methoxyethyl)-N^6-(5-methyl-1H-pyrazol-3-yl)-2-phenylpyrimidine-4,6-diamine]
- IC50 [1]: ≤ 100 nM
- IC50 ([2]; 40 minutes at room temperature): ≤ 100 nM

SMILES: CC(=O)c1cccc(-c2nc(Nc3cc(C)[nH]n3)cc(N3CCN(C)CC3)n2)c1 [Example 165, 1-(3-(4-(5-methyl-1H-pyrazol-3-ylamino)-6-(4-methylpiperazin-1-yl)pyrimidin-2-yl)phenyl)ethanone]
- IC50 [1]: ≤ 100 nM
- IC50 ([2]; 40 minutes at room temperature): ≤ 100 nM

Source: US20090029992A1, “SUBSTITUTED PYRAZOLE COMPOUNDS” (priority 2007, published 2009)
